Here are results for 3 compounds from ChEMBL document CHEMBL4359906, “Design and synthesis of new N-terminal fatty acid modified-antimicrobial peptide analogues with potent in vitro biological activity” (Eur J Med Chem, 2019).

The test system of one data set is Klebsiella pneumoniae. Put plainly: Antibacterial activity against Klebsiella pneumoniae ATCC 700603 after 18 hrs by CLSI based broth microdilution method. The data set is classed as functional. Particulars: Klebsiella pneumoniae, 700603, 18 h.
Data set [1] in a line: Cytotoxicity against mouse RAW264.7 cells assessed as cell proliferation at 64 uM after 1 hr by MTT assay relative to control. The settings on record: read-out: Activity. It counts as cell-based.
The subject of data set [2] is Escherichia coli. Put plainly: Antibacterial activity against Escherichia coli ATCC 25922 after 18 hrs in presence of NaCl by CLSI based broth microdilution method (reference value: 16 microM). The data set is classed as functional. Particulars: ATCC 25922, 18 h.
Data set [3] concerns Escherichia coli. Briefly: Antibacterial activity against Escherichia coli ATCC 25922 after 18 hrs in presence of KCl by CLSI based broth microdilution method (reference value: 16 microM). The data set is classed as functional. Particulars: ATCC 25922, 18 h.
The test system of data set [4] is Escherichia coli. Put plainly: Antibacterial activity against Escherichia coli ATCC 25922 after 18 hrs in presence of MgCl2 by CLSI based broth microdilution method (reference value: 16 microM). The settings on record: ATCC 25922, 18 h. The data set is classed as functional.
The subject of data set [5] is Escherichia coli. Put plainly: Antibacterial activity against Escherichia coli ATCC 25922 after 18 hrs in presence of FeCl3 by CLSI based broth microdilution method (reference value: 16 microM). It counts as functional. Particulars: ATCC 25922, 18 h.
Data set [6] has as its system Staphylococcus aureus. Put plainly: Antibacterial activity against Staphylococcus aureus ATCC 25923 after 18 hrs in presence of FeCl3 by CLSI based broth microdilution method (reference value: 128 microM). The data set is classed as functional. Particulars: ATCC 25923, 18 h.
In data set [7] the test system is Escherichia coli. Briefly: Antibiofilm activity against Escherichia coli ATCC 25922 assessed as reduction in biofilm inhibition at MIC after 24 hrs by crystal violet staining based assay relative to control. The data set is classed as functional.
Data set [8] relates to Escherichia coli. Put plainly: Antimicrobial activity against Escherichia coli ATCC 25922 preincubated for 1 hr in presence of 10% mouse serum and measured after 18 hrs by CLSI-based broth microdilution assay (reference value: 16 microM). It counts as functional.
The test system of data set [9] is Escherichia coli. Briefly: Antimicrobial activity against Escherichia coli ATCC 25922 preincubated for 6 hrs in presence of 10% mouse serum and measured after 18 hrs by CLSI-based broth microdilution assay (reference value: 16 microM). The data set is classed as functional.
Data set [10] deals with Escherichia coli. Put plainly: Ratio of MIC for Escherichia coli ATCC 25922 preincubated for 1 hr in presence of 10% mouse serum and measured after 18 hrs to MIC for antibacterial activity against Escherichia coli ATCC 25922 after 18 hrs. The data set is classed as functional.
For data set [11], the system named is Escherichia coli. Briefly: Induction of outer membrane permeabilization in Escherichia coli ATCC 25922 measured up to 12 mins by NPN-dye based assay. The data set is classed as organism-based.
In data set [12] the test system is Escherichia coli. Put plainly: Induction of inner membrane permeabilization in Escherichia coli ATCC 43837 assessed as increase in ONPG release at 4 times of MIC by ONPG dye based assay. It counts as organism-based.
Another data set has as its system DNA. Briefly: Binding affinity to Escherichia coli ATCC 25922 genomic DNA after 30 mins by agarose gel electrophoresis. The data set is classed as nucleic-acid assay.
Data set [13] deals with Staphylococcus aureus. Briefly: Antibiofilm activity against Staphylococcus aureus ATCC 25923 at 1 to 2 times of MIC after 24 hrs by crystal violet staining based assay. It counts as functional, organism-based.
Data set [14] deals with Escherichia coli. Put plainly: Antibacterial activity against Escherichia coli ATCC 25922 after 18 hrs in presence of FeCl3 by CLSI based broth microdilution method (reference value: 64 microM). Particulars: ATCC 25922, 18 h. The data set is classed as functional.
Data set [15] concerns Staphylococcus aureus. Put plainly: Antibacterial activity against Staphylococcus aureus ATCC 25923 after 18 hrs in presence of MgCl2 by CLSI based broth microdilution method (reference value: 32 microM). Particulars: ATCC 25923, 18 h. It counts as functional.
In data set [16] the test system is Staphylococcus aureus. Briefly: Antibiofilm activity against Staphylococcus aureus ATCC 25923 at 2 times of MIC after 24 hrs by crystal violet staining based assay. It counts as functional, organism-based.
The subject of data set [17] is Escherichia coli. Briefly: Antibiofilm activity against Escherichia coli ATCC 25922 assessed as reduction in biofilm inhibition at 0.5 to 1 times of MIC after 24 hrs by crystal violet staining based assay. It counts as functional, organism-based.
For data set [18], the system named is Staphylococcus aureus. Briefly: Antibacterial activity against Staphylococcus aureus ATCC 25923 after 18 hrs in presence of MgCl2 by CLSI based broth microdilution method (reference value: 4 microM). The settings on record: ATCC 25923, 18 h. The data set is classed as functional.

Values after ≈ are worked out from the molar mass of the structure shown. Active and inactive are the calls of the source. No cut-off for these calls is given here. A value given as a limit tells only on which side of the number the result lay.

Consider `CCCC(=O)NC(Cc1cn(CCCC[C@H](NC(C)=O)C(=O)NCC(=O)N[C@@H](CC(C)C)C(=O)N[C@@H](CC(C)C)C(=O)N[C@H](CCCCN)C(=O)N[C@@H](CCCNC(=N)N)C(=O)N[C@H](C(=O)N[C@H](CCCCN)C(=O)N[C@H](C(=O)N[C@@H](CC(C)C)C(=O)N[C@@H](CC(C)C)C(N)=O)[C@@H](C)O)[C@@H](C)CC)nn1)C(=O)NCC(=O)N[C@@H](CC(C)C)C(=O)N[C@@H](CC(C)C)C(=O)N[C@H](CCCCN)C(=O)N[C@@H](CCCNC(=N)N)C(=O)N[C@H](C(=O)N[C@H](CCCCN)C(=O)N[C@H](C(=O)N[C@@H](CC(C)C)C(=O)N[C@@H](CC(C)C)C(N)=O)[C@@H](C)O)[C@@H](C)CC` (some centres undefined), for which the MIC in the data set with Klebsiella pneumoniae turned out to be 32 µM (≈ 85.4 µg/mL); with Escherichia coli [2] it was 128 µM; with Escherichia coli [3], 16 µM; in the data set with Escherichia coli [4], 32 µM; in the data set with Escherichia coli [5], 16 µM; in the data set on Staphylococcus aureus [6], 128 µM. The minimum inhibitory concentration (MIC) in the data set with Escherichia coli [8] and in the data set with Escherichia coli [9] was 16 µM each time. Further, the viability at 1 h, 64 µM in [1] was above 80%. Further, in the data set on Escherichia coli [7], the “inhibition (INH)” value is given as above 50%. Further, in the data set on Escherichia coli [10], the Ratio turned out to be 1. For the same compound, the Activity entry with Escherichia coli [11] and in the data set on DNA was “Dose-dependent effect” in each case. Further, the outcome in the data set on Escherichia coli [12] was Active. Further, in the data set with Staphylococcus aureus [13], the inhibition entry is “Active”.
On to `CCCCCCCC(=O)NCC(=O)N[C@@H](CC(C)C)C(=O)N[C@@H](CC(C)C)C(=O)N[C@H](CCCCN)C(=O)N[C@@H](CCCNC(=N)N)C(=O)N[C@H](C(=O)N[C@H](CCCCN)C(=O)N[C@H](C(=O)N[C@@H](CC(C)C)C(=O)N[C@@H](CC(C)C)C(N)=O)[C@@H](C)O)[C@@H](C)CC`, for which the MIC with Klebsiella pneumoniae turned out to be 64 µM (≈ 81.9 µg/mL); in the data set with Escherichia coli [14] it was 32 µM; with Staphylococcus aureus [15], 64 µM. Besides, the viability at 1 h, 64 µM in data set [1] is above 80%. Further, the inhibition result in the data set on Staphylococcus aureus [16] and with Escherichia coli [17] was “Active” each time. Besides, the Ratio in the data set on Escherichia coli [10] came out at 1. The Activity entry in the data set with Escherichia coli [11] and in the data set on DNA was “Dose-dependent effect” in each case. Besides, the outcome in the data set on Escherichia coli [12] was Active.
Turning to `CCCCCCCCCCCC(=O)NCC(=O)N[C@@H](CC(C)C)C(=O)N[C@@H](CC(C)C)C(=O)N[C@H](CCCCN)C(=O)N[C@@H](CCCNC(=N)N)C(=O)N[C@H](C(=O)N[C@H](CCCCN)C(=O)N[C@H](C(=O)N[C@@H](CC(C)C)C(=O)N[C@@H](CC(C)C)C(N)=O)[C@@H](C)O)[C@@H](C)CC`, the MIC against Klebsiella pneumoniae amounted to 8 µM (≈ 10.7 µg/mL); with Escherichia coli [2] it was 16 µM; in the data set on Escherichia coli [3], 4 µM; in the data set with Escherichia coli [4], 16 µM; in the data set on Escherichia coli [5] it was 4 µM; with Staphylococcus aureus [18] it was 8 µM. The MIC in the data set on Escherichia coli [8] was determined as 16 µM; with Escherichia coli [9], 32 µM. Moreover, the inhibition entry in the data set on Staphylococcus aureus [16] and in the data set on Escherichia coli [17] was “Active” in each case. The Ratio in the data set on Escherichia coli [10] is 1. The Activity entry in the data set on Escherichia coli [11] and in the data set with DNA was “Dose-dependent effect” each time. For the same compound, the outcome with Escherichia coli [12] was Active.
